Test results: US4788186A, “6-substituted-s-triazolo[3,4-a]phthalazine derivatives” (Gruppo Lepetit S.p.A., priority 1982, dated 1988)

Experiments:
[1] = tested on: male rats of the CFHB Wistar strain; experiment: conditioned avoidance test (secondary conditioned response, pole climbing); type: in vivo, rat (CFHB Wistar); conditions: intraperitoneally, doses of between about 1/30 and 1/10 of the corresponding LD50s
Description: (§1) Some of the compounds of the above list were also tested in vivo in those pharmacological tests thought to be predictive of anxiolytic activity in man. Classical pharmacological tests employed to confirm the antianxiety activity were the conditioned avoidance test and the antipentylenetetrazole test in mice. The conditioned avoidance test was carried out according to the method described by Cook and Weidley in Ann. N.Y. Acad. Sci. 1957, 66, 740, and subsequently modified by Maffii (J. Pharm. and Pharmacol., 1959, 11, 129-139). In this procedure a rat is placed in a chamber with a grid floor through which electric shocks may be delivered. This chamber is also equipped with a buzzer and with a wooden pole, electrically isolated, which is suspended from the top of the experimental chamber.
The animal soon learns to escape the shock by climbing the pole (unconditioned response--U.R.) and by climbing the pole in response to the buzzer alone (conditioned avoidance response--CR). After further exposure to the situation, the rat becomes conditioned and climbs the pole before the buzzer is activated; when this response becomes stable, the rat is considered to have developed a secondary conditioned response (CR2).
(§2) The drug to be studied is then administered to these long-trained animals and its deconditioning effect is evaluated. […] Moreover, the activity of some of the compounds of the present invention has been tested in the antipentylenetetrazole test in mice. The experiments have been carried out by following essentially the methodology described by Berger in J. Pharm. Exptl. Ther. 104, 468, (1952). More particularly, a fatal dose of pentylentetrazole (140 mg/kg s.c.) was administered to groups of ten mice each, 30 minutes after a selected dose of the potential anticonvulsant compound. […] Since the animals of the control group died within 30 minutes, the effectiveness of the compounds tested at each dose tested was expressed as the number of animals of the group which were still alive two hours after the administration of pentylenetetrazole, out of the total number of animals of the group (10).

[2] = target: rat brain benzodiazepine receptors (3H-diazepam receptor); experiment: benzodiazepine receptor binding test in vitro (inhibition of specific 3H-diazepam binding to rat brain membranes); conditions: Ki = IC50/(1+C/KD), read-out: Ki (inhibitor constant, 3H-diazepam binding)
Description: The pharmacological properties of the compounds of the present invention were first investigated by submitting them to the benzodiazepine receptor binding test in vitro.

[3] = LD50 (acute toxicity, i.p.); conditions: in vivo, ip
[4] = tested on: mice (pentylenetetrazole-induced death); experiment: antipentylenetetrazole test in mice; type: in vivo; conditions: pentylenetetrazole 140 mg/kg s.c. 30 min later, alive after 2 hours
Description: as §1, §2

Row | Structure (SMILES) | effect on primary conditioned and unconditioned responses (CR and U.R.) [1] | effect on secondary conditioned response (CR2) [1] | Ki [2] [nM] | further results
1 | CC1(C)CN(c2nn3c(-c4ccccc4)nnc3c3ccccc23)C1 [Example 45] | without influencing the primary conditioned and the unconditioned responses (CR and U.R.) | effective in inhibiting the secondary conditioned response (CR2) | 32 | 
2 | Oc1ccc(-c2nnc3c4ccccc4c(N4CCCC4)nn23)cc1 [Example 74] |  |  | 17 | 
3 | CNc1nn2c(-c3ccccc3)nnc2c2ccccc12 [Example 35] |  |  | 46 | 
4 | CCOc1nn2c(-c3ccc(OC)cc3)nnc2c2ccccc12 [Example 101] |  |  | 2.9 | 
5 | COc1ccc(-c2nnc3c4ccccc4c(OCCCCO)nn23)cc1 [Example 103, 6-(4-hydroxybutoxy)-3-(4-methoxyphenyl)-1,2,4-triazolo[3,4-a]phthalazine] |  |  | 0.427 | 
6 | COc1ccc(-c2nnc3c4ccccc4c(N4CCCC4)nn23)cc1 [Example 47] |  |  | 3.9 | 
7 | COCCN(CCOC)c1nn2c(-c3ccc(OC)cc3)nnc2c2ccccc12 [Example 67] | without influencing the primary conditioned and the unconditioned responses (CR and U.R.) | effective in inhibiting the secondary conditioned response (CR2) | 2.7 | LD50 [3]: ≥ 300 mg/kg; Protected/treated ([4]; dose 5 mg/kg i.p.): 4/10; Protected/treated ([4]; dose 10 mg/kg i.p.): 8/10
8 | CCNc1nn2c(-c3ccccc3)nnc2c2ccccc12 [Example 36] |  |  | 48 | 
9 | c1ccc(-c2nn3cnnc3c3ccccc23)cc1 [Example 114, 6-phenyl-1,2,4-triazolo[3,4-a]phthalazine] | without influencing the primary conditioned and the unconditioned responses (CR and U.R.) | effective in inhibiting the secondary conditioned response (CR2) |  | 
10 | c1ccc(-c2nnc3c4ccccc4c(N4CCOCC4)nn23)cc1 [Example 30] | without influencing the primary conditioned and the unconditioned responses (CR and U.R.) | effective in inhibiting the secondary conditioned response (CR2) | 18 | 
11 | CCOc1nn2c(-c3ccccc3)nnc2c2ccccc12 [Example 85, 6-ethoxy-3-phenyl-1,2,4-triazolo[3,4-a]phthalazine] |  |  | 7.8 | 
12 | CCOC(=O)CCCN(C)c1nn2c(-c3ccc(OC)cc3)nnc2c2ccccc12 [Example 108] |  |  | 0.524 | 
13 | c1ccc(-c2nnc3c4ccccc4c(N4CCCC4)nn23)cc1 [Example 27, 3-phenyl-6-(1-pyrrolidinyl)-1,2,4-triazolo[3,4-a]phthalazine] |  |  | 16 | 
14 | Fc1ccc(-c2nnc3c4ccccc4c(N4CCCC4)nn23)cc1 [Example 64] |  |  | 20 | 
15 | CCN(CC)c1nn2c(-c3ccccc3)nnc2c2ccccc12 [Example 42] |  |  | 57 | 
16 | COc1ccc(-c2nnc3c4ccccc4c(N4CCCC4)nn23)cc1OC [Example 54] | without influencing the primary conditioned and the unconditioned responses (CR and U.R.) | effective in inhibiting the secondary conditioned response (CR2) |  | 
17 | CC(O)CN(C)c1nn2c(-c3ccccc3)nnc2c2ccccc12 (stereo not drawn) [Example 29] |  |  | 28 | 
18 | CC(=O)Nc1ccc(-c2nnc3c4ccccc4c(N4CCCC4)nn23)cc1 [Example 51] |  |  | 40 | 

Row | Structure (SMILES) | effect on primary conditioned and unconditioned responses (CR and U.R.) [1] | effect on secondary conditioned response (CR2) [1] | Ki [2] [nM] | further results
19 | CCOC(=O)C1CCN(c2nn3c(-c4ccc(OC)cc4)nnc3c3ccccc23)CC1 [Example 72] | without influencing the primary conditioned and the unconditioned responses (CR and U.R.) | effective in inhibiting the secondary conditioned response (CR2) | 1.5 | 
20 | CCS(=O)(=O)c1nn2c(-c3ccccc3)nnc2c2ccccc12 [Example 112, 6-(ethyl-sulfonyl)-3-phenyl-1,2,4-triazolo[3,4-a]phthalazine] | without influencing the primary conditioned and the unconditioned responses (CR and U.R.) | effective in inhibiting the secondary conditioned response (CR2) | 60 | 
21 | CC1CC(C)CN(c2nn3c(-c4ccccc4)nnc3c3ccccc23)C1 (stereo not drawn) [Example 73] | without influencing the primary conditioned and the unconditioned responses (CR and U.R.) | effective in inhibiting the secondary conditioned response (CR2) | 210 | 
22 | CN(C)c1nn2c(-c3ccccc3)nnc2c2ccccc12 [Example 41] |  |  | 21 | 
23 | Nc1ccc(-c2nnc3c4ccccc4c(N4CCCC4)nn23)cc1 [Example 75] |  |  | 29 | 
24 | c1ccc(-c2nnc3c4ccccc4c(N4CCCCC4)nn23)cc1 [Example 43] |  |  | 16 | 
25 | COc1ccc(-c2nnc3c4ccccc4c(N4CCC(O)C4)nn23)cc1 (stereo not drawn) [Example 79] |  |  | 2.7 | 
26 | CCCCCOc1ccc(-c2nnc3c4ccccc4c(OCC)nn23)cc1OC [Example 93] | without influencing the primary conditioned and the unconditioned responses (CR and U.R.) | effective in inhibiting the secondary conditioned response (CR2) |  | 
27 | CCOC(=O)CCCOc1nn2c(-c3ccc(OC)cc3)nnc2c2ccccc12 [Example 104, 4[[3-(4-methoxyphenyl)-1,2,4-triazolo[3,4-a]phthalazin-6-yl]oxy]butanoic acid ethyl ester] |  |  | 0.806 | 
28 | COc1ccc(-c2nnc3c4ccccc4c(N(C)CCCC#N)nn23)cc1 [Example 107, 4-[[3-(4-methoxyphenyl)-1,2,4-triazolo [3,4-a]phthalazin-6-yl]methylamino]butanonitrile] |  |  | 0.565 | 
29 | CCN(C)c1nn2c(-c3ccccc3)nnc2c2ccccc12 [Example 46] |  |  | 14 | 
30 | O=C1Nc2ccc(Cl)cc2C(c2ccccc2)=NC1O (stereo not drawn) [Oxazepam, reference compound] |  |  | 5.2 | 
31 | COc1ccc(-c2nnc3c4ccccc4c(N(C)CC(C)O)nn23)cc1 (stereo not drawn) [Example 31] | without influencing the primary conditioned and the unconditioned responses (CR and U.R.) | effective in inhibiting the secondary conditioned response (CR2) | 17 | LD50 [3]: ≥ 300 mg/kg; Protected/treated ([4]; dose 10 mg/kg i.p.): 6/10; Protected/treated ([4]; dose 20 mg/kg i.p.): 9/10
32 | COCCOc1nn2c(-c3ccc(OC)cc3)nnc2c2ccccc12 [Example 105, 6-(2-methoxyethoxy)-3-(4-methoxyphenyl)-1,2,4-triazolo[3,4-a]phthalazine] | without influencing the primary conditioned and the unconditioned responses (CR and U.R.) | effective in inhibiting the secondary conditioned response (CR2) | 0.9 | LD50 [3]: ~500 mg/kg; Protected/treated ([4]; dose 15 mg/kg i.p.): 3/10; Protected/treated ([4]; dose 25 mg/kg i.p.): 8/10
33 | CN1CCN(c2nn3c(-c4ccccc4)nnc3c3ccccc23)CC1 [Example 44] |  |  | 57 | 
34 | CCN(CC)CCN1C(=O)CN=C(c2ccccc2F)c2cc(Cl)ccc21 [Flurazepam, reference compound] |  |  | 8.58 | 
35 | COc1ccc(-c2nnc3c4ccccc4c(N(C)CCCO)nn23)cc1 [Example 32, N-(3-hydroxypropyl)-N-methyl-3-(4-methoxyphenyl)-1,2,4-triazolo[3,4-a]phthalazin-6-amine] |  |  | 0.968 | 
